Each structure is given as a SMILES string. In brackets after ≈: the same amount, converted by molar mass.

The first series concerns Murine bone marrow derived macrophages.
Experiment: not given
Details: not given
In the case of `CCc1ccc(C=NNc2cc(OC)ncn2)nc1` [PH22-33, 5-ethylpyridine-2-aldehyde-6'-methoxy-4'-pyrimidylhydrazone], the “toxicity as measured by MTT assay” value is recorded as “No toxicity was observed”.

Another series has as its system Mtb H37Rv ATCC 272945. As to the kind of experiment: Drug susceptibility testing, radiometric MIC determination (BACTEC 460TB). Particulars: Mycobacterium tuberculosis, ATCC272945|H37RV, read-out: minimal inhibitory concentrations.
Description: Drug susceptibility testing (DST) was performed with the broth-based radiometric BACTEC 460TB system (Becton Dickinson Diagnostic Systems, Sparks, MD) which is considered the laboratory "gold standard". The standard protocol for DST and determination of MICs was strictly followed as recommended by the manufacturers.
Regarding `Cc1ccc(C=NNc2ccc3ccccc3n2)nc1` [PH22-14, 5-methylpyridine-2-aldehyde-2'-quinolylhydrazone], the MIC is 0.5 µg/mL (≈ 1.91 µM).

Regarding `Cc1cccc(NN=Cc2ccccn2)n1` [PH22-31, pyridine-2-aldehyde-6'-methyl-2'-pyridylhydrazone], the MIC is less than 1 µg/mL.

Regarding `C(=NNc1ncnc2ccccc12)c1ccc(OCc2ccccc2)cn1` [PH22-52, 5-benzyloxypyridine-2-aldehyde-4'-quinazolinylhydrazone], the MIC is 1 to 5 µg/mL (≈ 2.81 to 14.1 µM). On the same count and under the same terms, the figure for `Clc1ccc(NN=Cc2ccc(OCc3ccccc3)cn2)nn1` [PH22-51, 5-benzyloxypyridine-2-aldehyde-6'-chloro-3'-pyridazinylhydrazone] is 1 µg/mL (≈ 2.94 µM); for `C(=NNc1ccccn1)c1ccc(OCc2ccccc2)cn1` [PH22-49, 5-benzyloxypyridine-2-aldehyde-2'-pyridylhydrazone] it is 5 µg/mL (≈ 16.4 µM); for `C(=NNc1nncc2ccccc12)c1ccc(OCc2ccccc2)cn1` [PH22-6, 5-benzyloxypyridine-2-aldehyde-1'-phthalazinylhydrazone] it is 5 µg/mL (≈ 14.1 µM). On the same count and under the same terms, the figure for `Cc1ccc(C=NNc2nncc3ccccc23)nc1` [PH22-16, 5-methyl-pyridine-2-aldehyde-1'-phthalazinylhydrazone] is less than 1 µg/mL; for `c1ccc(C(=NNc2nncc3ccccc23)c2ccccn2)cc1` [PH22-22, 2-benzoylpyridine-1'-phthalazinylhydrazone] it is 5 µg/mL (≈ 15.4 µM); for `CCc1ccc(C=NNc2cc(OC)ncn2)nc1` [PH22-33, 5-ethylpyridine-2-aldehyde-6'-methoxy-4'-pyrimidylhydrazone] it is less than 0.125 µg/mL. Still for that read-out and setting: in the case of `c1ccc(C(=NNc2ccc3ccccc3n2)c2ccccn2)cc1` [PH22-15, 2-benzoylpyridine-2'-quinolylhydrazone] it was 0.25 µg/mL (≈ 0.771 µM).

The values above are taken from patent publication EP2311457A1, “Pharmaceutical compositions for treating infections with drug resistant mycobacteria” (priority 2009, dated 2011).
